Like-named read-outs stand apart in the source and are kept apart here. *1 amine or outer side, *2 acyl side, *3 side chain or, on linkers, in order; H or OH if unused. Where a SMILES comes first, the peptide text is derived from it. Bridges are numbered along the chain shown (N, C = ends). [ ]: non-standard residue; d: D form. The star is where a group is joined. hPhe(3,5-F2-4-CF3) = N[C@@H](CCc1cc(F)c(C(F)(F)F)c(F)c1)C(=O)O; hPhe(3-Cl-4-CF3) = N[C@@H](CCc1ccc(C(F)(F)F)c(Cl)c1)C(=O)O; NPrPhe(4-CF3) = CCCN[C@@H](Cc1ccc(C(F)(F)F)cc1)C(=O)O; NEtPhe(4-CF3) = CCN[C@@H](Cc1ccc(C(F)(F)F)cc1)C(=O)O; X28 = COCCCN([C@@H](Cc1ccc(C)cc1)C(=O)[*:2])[*:1]; hPhe(3,4-Cl2) = N[C@@H](CCc1ccc(Cl)c(Cl)c1)C(=O)O; NMeGly(cPent) = CN[C@H](C(=O)O)C1CCCC1; Pro(4,4-F2) = O=C(O)[C@@H]1CC(F)(F)CN1; NMeD = CN[C@@H](CC(=O)O)C(=O)O; NMeL = CN[C@@H](CC(C)C)C(=O)O; αMeS = C[C@](N)(CO)C(=O)O; Ac6c = NC1(C(=O)O)CCCCC1; Morpholide = C1CN(*)CCO1; NMeA = CN[C@@H](C)C(=O)O; Ac5c = NC1(C(=O)O)CCCC1; Aze = O=C(O)[C@@H]1CCN1; Ac4c = NC1(C(=O)O)CCC1; NEtG = CCNCC(=O)O; Sar = CNCC(=O)O
Legend:
[1] = target: GDP-bound KRAS wild-type protein (Homo sapiens, UniProt P01116); test: Binding to KRAS by surface plasmon resonance (SPR), Single Cycle Kinetics; settings: GDP-bound KRAS wild-type protein, read-out: KRAS KD
[2] = target: GDP-bound NRAS wild-type protein (Homo sapiens, UniProt P01111); test: Binding to NRAS by surface plasmon resonance (SPR), Single Cycle Kinetics; settings: SPR, GDP-bound NRAS wild-type protein vs GDP-bound KRAS wild-type protein
[3] = target: GDP-bound HRAS wild-type protein (Homo sapiens, UniProt P01112); test: Binding to HRAS by surface plasmon resonance (SPR), Single Cycle Kinetics; settings: SPR, GDP-bound HRAS wild-type protein vs GDP-bound KRAS wild-type protein
[4] = SPR Single Cycle Kinetics, 1:1 binding model
[5] = SPR, Single Cycle Kinetics, 1:1 binding model

Chain of GDP-bound HRAS wild-type protein (P01112 whole entry): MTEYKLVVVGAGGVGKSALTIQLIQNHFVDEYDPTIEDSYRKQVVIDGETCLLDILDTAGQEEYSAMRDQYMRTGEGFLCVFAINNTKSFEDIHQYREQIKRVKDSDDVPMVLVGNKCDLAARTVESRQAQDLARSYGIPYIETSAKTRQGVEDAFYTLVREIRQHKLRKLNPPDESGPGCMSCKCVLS
Chain of GDP-bound NRAS wild-type protein (P01111 whole entry): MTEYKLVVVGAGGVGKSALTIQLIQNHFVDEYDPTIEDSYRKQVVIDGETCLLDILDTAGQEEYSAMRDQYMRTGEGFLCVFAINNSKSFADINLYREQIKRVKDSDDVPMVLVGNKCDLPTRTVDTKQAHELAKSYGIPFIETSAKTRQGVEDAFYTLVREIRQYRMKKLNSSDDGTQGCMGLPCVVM
Chain of GDP-bound KRAS wild-type protein (P01116 whole entry): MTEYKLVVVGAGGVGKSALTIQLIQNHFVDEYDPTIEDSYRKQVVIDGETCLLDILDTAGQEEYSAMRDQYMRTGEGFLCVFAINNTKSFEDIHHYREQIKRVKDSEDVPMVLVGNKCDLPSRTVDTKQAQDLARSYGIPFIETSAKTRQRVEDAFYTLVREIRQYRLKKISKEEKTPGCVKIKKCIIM

| SMILES | Kd [1, 4] [nM] | NRAS/KRAS (ratio of KD value for NRAS to KD value for KRAS) [2] | HRAS/KRAS (ratio of KD value for HRAS to KD value for KRAS) [3] | other results |
| --- | --- | --- | --- | --- |
| CCCN1C(=O)CN(C)C(=O)[C@@H]2CCCN2C(=O)[C@H]([C@@H](C)CC)NC(=O)[C@H](CC(C)C)N(C)C(=O)C[C@@H](C(=O)N2CCOCC2)N(C)C(=O)[C@H](C2CCCC2)N(C)C(=O)C2(CCCC2)NC(=O)[C@@H]2CCCN2C(=O)[C@H](CCc2ccc(C(F)(F)F)c(Cl)c2)NC(=O)CN(C)C(=O)[C@@H]1Cc1ccc(C(F)(F)F)cc1 [PP0165] ([NMeL]IP[Sar][NPrPhe(4-CF3)][Sar][hPhe(3-Cl-4-CF3)]P[Ac5c][NMeGly(cPent)][NMeD]-Morpholide; lactam N-11) | 2.9 | B (a compound having 3 or more and less than 10 is denoted as B) | B (a compound having 3 or more and less than 10 is denoted as B) | – |
| CC[C@H](C)[C@@H]1NC(=O)[C@H](CC(C)C)N(C)C(=O)C[C@@H](C(=O)N2CCOCC2)N(C)C(=O)[C@H](C2CCCC2)N(C)C(=O)C2(CCCC2)NC(=O)[C@@H]2CCCN2C(=O)[C@H](CCc2ccc(Cl)c(Cl)c2)NC(=O)CN(C)C(=O)[C@H](Cc2ccc(C(F)(F)F)cc2)N(CC)C(=O)[C@@H]2CCN2C(=O)[C@H](C)N(C)C1=O [PP0223] ([NMeL]I[NMeA][Aze][NEtPhe(4-CF3)][Sar][hPhe(3,4-Cl2)]P[Ac5c][NMeGly(cPent)][NMeD]-Morpholide; lactam N-11) | 0.4 | C (A compound having a KD ratio of 0.1 or more and less than 3 is denoted as C) | C (A compound having a KD ratio of 0.1 or more and less than 3 is denoted as C) | – |
| CCO[C@@H]1C[C@H]2C(=O)NC3(CCC3)C(=O)N(C)[C@@H](C3CCCC3)C(=O)N(C)[C@H](C(=O)N(C)C)CC(=O)N(C)[C@@H](CC3CCCC3)C(=O)N[C@@H]([C@@H](C)CC)C(=O)N(C)CC(=O)N(C)[C@H]3C/C=C\CCN(C3=O)[C@@H](Cc3ccc(F)cc3)C(=O)N(C)CC(=O)N[C@@H](CCc3cc(F)c(C(F)(F)F)c(F)c3)C(=O)N2C1 [PP1531, (2S,8S,12R,14S,20S,23S,27S,30S,36S,38Z)-20-cyclopentyl-27-(cyclopentylmethyl)-8-[2-[3,5-difluoro-4-(trifluoromethyl)phenyl]ethyl]-12-ethoxy-2-[(4-fluorophenyl)methyl]-N,N,4,19,22,26,32,35-octamethyl-30-[(1S)-1-methylpropyl]-3,6,9,15,18,21,25,28,31,34,42-undecaoxo-spiro[1,4,7,10,16,19,22,26,29,32,35-undecazatricyclo[34.5.1.0^10,14]dotetracont-38-ene-17,1′-cyclobutane]-23-carboxamide] | – | – | – | Kd [1, 5]: 0.12 nM; NRAS/KRAS (ratio of KD value for NRAS to KD value for KRAS) ([2]; KD ratio class): A (a compound having 10 or more and less than 20 is denoted as A); HRAS/KRAS (ratio of KD value for HRAS to KD value for KRAS) ([3]; KD ratio class): B (a compound having 3 or more and less than 10 is denoted as B) |
| CCO[C@@H]1C[C@H]2C(=O)NC3(CCC3)C(=O)N(C)[C@@H](C3CCCC3)C(=O)N(C)[C@H](C(=O)N(C)C)CC(=O)N(C)[C@@H](CC)C(=O)N[C@@H]([C@@H](C)CC)C(=O)N(CC)CC(=O)N(C)[C@H]3C/C=C\CCN(C3=O)[C@@H](Cc3ccc(C(F)(F)F)cc3)C(=O)N(C)CC(=O)N[C@@H](CCc3cc(F)c(C(F)(F)F)c(F)c3)C(=O)N2C1 [PP1052] | – | A (a compound having 10 or more and less than 20 is denoted as A) | A (a compound having 10 or more and less than 20 is denoted as A) | Kd ([1]; SPR, Single Cycle Kinetics): 0.25 nM |
| CCCN1C(=O)[C@@H]2CCN2C(=O)[C@H](C)N(C)C(=O)[C@H]([C@@H](C)CC)NC(=O)[C@H](CC(C)C)N(C)C(=O)C[C@@H](C(=O)N2CCOCC2)N(C)C(=O)[C@H](C2CCCC2)N(C)C(=O)C2(CCCCC2)NC(=O)[C@@H]2CCCN2C(=O)[C@H](CCc2ccc(C(F)(F)F)c(Cl)c2)NC(=O)CN(C)C(=O)[C@@H]1Cc1ccc(C(F)(F)F)cc1 [PP0226] ([NMeL]I[NMeA][Aze][NPrPhe(4-CF3)][Sar][hPhe(3-Cl-4-CF3)]P[Ac6c][NMeGly(cPent)][NMeD]-Morpholide; lactam N-11) | 0.47 | C (A compound having a KD ratio of 0.1 or more and less than 3 is denoted as C) | B (a compound having 3 or more and less than 10 is denoted as B) | – |
| CCCN1C(=O)CN(C)C(=O)CN(CC)C(=O)[C@H]([C@@H](C)CC)NC(=O)[C@H](CC(C)C)N(C)C(=O)C[C@@H](C(=O)N(C)C)NC(=O)[C@H](C2CCCC2)N(C)C(=O)C2(CCC2)NC(=O)[C@@H]2CC(F)(F)CN2C(=O)[C@H](CCc2ccc(C(F)(F)F)c(Cl)c2)NC(=O)CN(C)C(=O)[C@@H]1Cc1ccc(C(F)(F)F)cc1 [PP0370] ([NMeL]I[NEtG][Sar][NPrPhe(4-CF3)][Sar][hPhe(3-Cl-4-CF3)][Pro(4,4-F2)][Ac4c][NMeGly(cPent)]D-NMe2; lactam N-11) | 1.5 | B (a compound having 3 or more and less than 10 is denoted as B) | C (A compound having a KD ratio of 0.1 or more and less than 3 is denoted as C) | – |
| CCCN1C(=O)[C@@H]2CCN2C(=O)CN(C)C(=O)[C@H]([C@@H](C)CC)NC(=O)[C@H](CC(C)C)N(C)C(=O)C[C@@H](C(=O)N2CCOCC2)N(C)C(=O)[C@H](C2CCCC2)N(C)C(=O)[C@](C)(COC)NC(=O)[C@@H]2CCCN2C(=O)[C@H](CCc2cc(F)c(C(F)(F)F)c(F)c2)NC(=O)CN(C)C(=O)[C@@H]1Cc1ccc(C(F)(F)F)cc1 [PP0798] ([NMeL]I[Sar][Aze][NPrPhe(4-CF3)][Sar][hPhe(3,5-F2-4-CF3)]P[αMeS](Me)[NMeGly(cPent)][NMeD]-Morpholide; lactam N-11) | 1.9 | – | – | NRAS/KRAS (ratio of KD value with respect to NRAS to KD value with respect to KRAS) [2]: C (A compound having a KD ratio of 0.1 or more and less than 3 is denoted as C); HRAS/KRAS (ratio of KD value with respect to HRAS to KD value with respect to KRAS) [3]: B (a compound having 3 or more and less than 10 is denoted as B) |
| CCO[C@@H]1C[C@H]2C(=O)NC3(CCC3)C(=O)N(C)[C@@H](C3CCCC3)C(=O)N(C)[C@H](C(=O)N(C)C)CC(=O)N(C)[C@@H](CC)C(=O)N[C@@H]([C@@H](C)CC)C(=O)N(C)CC(=O)N(C)[C@H]3CCCCN(C3=O)[C@@H](Cc3ccc(C(F)(F)F)cc3)C(=O)N(C)CC(=O)N[C@@H](CCc3cc(F)c(C(F)(F)F)c(F)c3)C(=O)N2C1 [PP0693] | 0.016 | – | – | NRAS/KRAS (ratio of KD value with respect to NRAS to KD value with respect to KRAS) [2]: C (A compound having a KD ratio of 0.1 or more and less than 3 is denoted as C); HRAS/KRAS (ratio of KD value with respect to HRAS to KD value with respect to KRAS) [3]: C (A compound having a KD ratio of 0.1 or more and less than 3 is denoted as C) |
| CCCN1C(=O)CN(C)C(=O)CNC(=O)[C@H]([C@@H](C)CC)NC(=O)[C@H](CC(C)C)N(C)C(=O)C[C@@H](C(=O)N2CCOCC2)N(C)C(=O)[C@H](C2CCCC2)N(C)C(=O)C2(CCC2)NC(=O)[C@@H]2CC(F)(F)CN2C(=O)[C@H](CCc2ccc(C(F)(F)F)c(Cl)c2)NC(=O)CN(C)C(=O)[C@@H]1Cc1ccc(C(F)(F)F)cc1 [PP0395] ([NMeL]IG[Sar][NPrPhe(4-CF3)][Sar][hPhe(3-Cl-4-CF3)][Pro(4,4-F2)][Ac4c][NMeGly(cPent)][NMeD]-Morpholide; lactam N-11) | 0.068 | B (a compound having 3 or more and less than 10 is denoted as B) | C (A compound having a KD ratio of 0.1 or more and less than 3 is denoted as C) | – |
| CC[C@H](C)[C@@H]1NC(=O)[C@H](CC(C)C)N(C)C(=O)C[C@@H](C(=O)N2CCOCC2)N(C)C(=O)[C@H](C2CCCC2)N(C)C(=O)C2(CCCC2)NC(=O)[C@@H]2CCCN2C(=O)[C@H](CCc2ccc(C(F)(F)F)c(Cl)c2)NC(=O)CN(C)C(=O)[C@H](Cc2ccc(C)cc2)N(CCCOC)C(=O)CN(C)C(=O)CN(C)C1=O [PP0105] ([NMeL]I[Sar][Sar][X28][Sar][hPhe(3-Cl-4-CF3)]P[Ac5c][NMeGly(cPent)][NMeD]-Morpholide; lactam N-11) | 0.14 | B (a compound having 3 or more and less than 10 is denoted as B) | C (A compound having a KD ratio of 0.1 or more and less than 3 is denoted as C) | – |
| CCO[C@@H]1C[C@H]2C(=O)NC3(CCC3)C(=O)N(C)[C@@H](C3CCCC3)C(=O)N(CC)[C@H](C(=O)N(C)C)CC(=O)N(C)[C@@H](CC)C(=O)N[C@@H]([C@@H](C)CC)C(=O)N(C)CC(=O)N(C)[C@H]3CCCCCN(C3=O)[C@@H](Cc3ccc(C(F)(F)F)cc3)C(=O)N(C)CC(=O)N[C@@H](CCc3cc(F)c(C(F)(F)F)c(F)c3)C(=O)N2C1 [PP0633] | 2.3 | – | – | NRAS/KRAS (ratio of KD value with respect to NRAS to KD value with respect to KRAS) [2]: B (a compound having 3 or more and less than 10 is denoted as B); HRAS/KRAS (ratio of KD value with respect to HRAS to KD value with respect to KRAS) [3]: B (a compound having 3 or more and less than 10 is denoted as B) |
| CC[C@H](C)[C@@H]1NC(=O)[C@H](CC2CCCC2)N(C)C(=O)C[C@@H](C(=O)N(C)C)N(C)C(=O)[C@@H](C2CCCC2)N(C)C(=O)C2(CCC2)NC(=O)[C@@H]2[C@@H](OCC(F)F)CCN2C(=O)[C@@H](CCc2cc(F)c(C(F)(F)F)c(F)c2)NC(=O)CN(C)C(=O)[C@@H](Cc2ccc(C)cc2)N2CC/C=C\C[C@H](C2=O)N(C)C(=O)CN(C)C1=O [PP1536] | – | – | – | Kd [1, 5]: 0.2 nM; NRAS/KRAS (ratio of KD value for NRAS to KD value for KRAS) ([2]; KD ratio class): A (a compound having 10 or more and less than 20 is denoted as A); HRAS/KRAS (ratio of KD value for HRAS to KD value for KRAS) ([3]; KD ratio class): B (a compound having 3 or more and less than 10 is denoted as B) |

— patent US20240158446A1, “CYCLIC COMPOUND HAVING SELECTIVE INHIBITORY ACTION ON KRAS OVER HRAS AND NRAS” (CHUGAI SEIYAKU KABUSHIKI KAISHA, priority 2021, published 2024)
